Here are results for 9 compounds from patent publication US10519159B2, “Antiviral aliphatic ester prodrugs of tenofovir” (Merck Sharp & Dohme Corp., priority 2016, dated 2019).

What is called IC50 is the concentration that inhibits the measured activity by half.

One data set deals with HIV-1 (H9/IIIB strain). Description: Multiple round HIV-1 infection assay (Viking assay) in MT4-GFP cells. The class given is cell-based. The procedure: Assessing Antiviral Potency in a Multiple Round HIV-1 Infection Assay (Viking Assay)
The antiviral activity of the tenofovir prodrugs of the Examples herein was assessed in an assay that measures the rate of replication of HIV in cell culture, termed the Viking assay (Viral KINetics in Green cells) and performed as follows. HIV-1 replication was monitored using MT4-gag-GFP clone D3 (hereafter designated MT4-GFP), which are MT-4 cells modified to harbor a GFP reporter gene, the expression of which is dependent on the HIV-1 expressed proteins tat and rev. Productive infection of an MT4-GFP cell with HIV-1 results in GFP expression approximately 24 h post-infection. MT4-GFP cells were maintained at 37° C./5% CO2/90% relative humidity in RPMI 1640 supplemented with 10% fetal bovine serum, 100 U/ml penicillin/streptomycin, and 400 μg/ml G418 to maintain the reporter gene. For infections, MT4-GFP cells were placed in the same medium lacking G418 and infected overnight with HIV-1 (H9/IIIB strain) virus at an approximate multiplicity of infection of 0.01 in the same incubation conditions. Cells were then washed and re-suspended in either RPMI 1640 supplemented with 10% or 50% normal human serum (NHS) at 1.6×10^5 cells/mL (10% NHS or 50% NHS, respectively). Compound plates were prepared by dispensing compounds dissolved in DMSO into wells of 384 well poly-D-lysine-coated plates (0.2 μl/well) using an ECHO acoustic dispenser. Each compound was tested in a 10-point serial 3-fold dilution (typical final concentrations: 8.4 μM-0.42 nM). Controls included no inhibitor (DMSO only) and a combination of three antiviral agents (efavirenz, indinavir, an in-house integrase strand transfer inhibitor at final concentrations of 4 μM each). Cells were added (50 μL/well) to compound plates and the infected cells were maintained at 37° C./5% CO2/90% relative humidity.
Infected cells were quantified at two time points, ˜48 h and ˜72 h post-infection, by counting the number of green cells in each well using an Acumen eX3 scanner. The increase in the number of green cells over ˜24 h period gives the reproductive ratio, R0, which is typically 5-15 and has been shown experimentally to be in logarithmic phase (data not shown). Inhibition of R0 is calculated for each well, and IC50s determined by non-linear 4-parameter curve fitting.

Data set [1] can be described thus: Prodrug stability assay in bio-relevant media (FaSSIF with pancreatin), GI tract stability. The class given is in vitro ADME. The procedure: Prodrug Stability Assay in Bio-Relevant Media
The following assay was employed to evaluate the stability of the prodrugs in simulated gastrointestinal tract conditions. Preparation of fasted state simulated intestinal fluid (FaSSIF) using Phares SIF Powder was carried out according to protocols from Phare Drug Delivery AG (Baselland, Switzerland). For sample preparation, 10 μL stock solutions (10 mM) of prodrug substance in DMSO was added to 990 μL of 0.5 mg/mL Pancreatin solution (Fisher CAS #8049-47-6) in FaSSIF. Two samples were prepared for each compound. If the sample was a clear solution, it was directly analyzed by HPLC. If the sample was not clear, the sample was […], maintained at 37° C. and observed 5 h later. If the sample was clear, HPLC analysis was directly performed. If the sample was still not clear, the sample was diluted with 100% ACN and assayed by HPLC. All the samples were vortexed for 3 min and observed before injection. For the diluted samples, the area is multiplied by a dilution factor when the data is analyzed. The analysis was carried out with an Agilent 1100 series HPLC with autosampler. The column was a Poroshell 120 EC-C18, 4.6×50 mm, 2.7 μm. The flow rate was 1.8 mL/min, and the injection volume was 5 or 10 μL. UV detection was in the range 210-400 nm. The mobile phase consisted of solvent A (water plus 10 mM tetrabutylammonium bromide) and solvent B (acetonitrile) with a gradient of: 90% solvent A at 0 min, changing to 95% solvent B over 6 min, maintaining for 1.5 min, then reverting to 90% solvent A over 1.6 min. The HPLC peak area of the prodrug at 5 h was divided by the HPLC peak area of the prodrug at 0 h, to generate the % claimed parent ratio, which is summarized in Table 1 for gastrointestinal (GI) Tract stability.

The mark [2] stands for this setting: Table 1, MT4-GFP cells infected with HIV-1 H9/IIIB, 10% normal human serum, read-out: Viking, IC50 (10% NHS).
Setting [3] is: Table 1, MT4-GFP cells infected with HIV-1 H9/IIIB, 50% normal human serum, read-out: Viking, IC50 (50% NHS).
[4] abbreviates: Table 1, % parent: HPLC peak area of prodrug at 5 h / 0 h, 0.5 mg/mL pancreatin in FaSSIF, 37° C.
[5] abbreviates: read-out: Viking, IC50 (10% NHS), Table 1, MT4-GFP cells infected with HIV-1 H9/IIIB, 10% normal human serum.
[6] abbreviates: read-out: Viking, IC50 (50% NHS), Table 1, MT4-GFP cells infected with HIV-1 H9/IIIB, 50% normal human serum.

The structures appear in SMILES notation. Read-outs that look alike come from different tables or passages of the source.

As to `CCCSC(=O)C(C)(C)NP(=O)(CO[C@H](C)Cn1cnc2c(N)ncnc21)OCCC(=O)OC(C)C` (single isomer, unassigned) [Example 13A], the values for the half-inhibitory concentration (IC50) in the data set with HIV-1 (H9/IIIB strain) (setting [2]) and with HIV-1 (H9/IIIB strain) (setting [3]) were 5.08 nM and 21.9 nM, respectively. The “GI Tract stability” value in data set [1] (setting [4]) worked out at 76.99%.
The like results for `CCCCCOC(=O)C(C)(C)NP(=O)(CO[C@H](C)Cn1cnc2c(N)ncnc21)OCCC(=O)OC(C)C` (single isomer, unassigned) [Example 8A] were, in that order, 0.92 nM, 11.3 nM and 92.12%.
On to `CCCOC(=O)[C@H](C)NP(=O)(CO[C@H](C)Cn1cnc2c(N)ncnc21)OCC[C@H](C)C(=O)OC(C)C` (single isomer, unassigned) [Compound 16A, reference compound], for which the IC50 with HIV-1 (H9/IIIB strain) (Human immunodeficiency virus 1, IIIB, Table 2, L-Ala comparison compounds, MT4-GFP cells, HIV-1 H9/IIIB, 10% normal human serum, read-out: Viking, IC50 (10% NHS)) amounted to 213 nM; in the data set with HIV-1 (H9/IIIB strain) (Human immunodeficiency virus 1, IIIB, Table 2, L-Ala comparison compounds, MT4-GFP cells, HIV-1 H9/IIIB, 50% normal human serum, read-out: Viking, IC50 (50% NHS)), 1830 nM. In addition, in data set [1] (Table 2, L-Ala comparison compounds, % parent at 5 h vs 0 h, pancreatin in FaSSIF), the “GI Tract stability” value was found to be 51.3%.
Turning to `CC(C)OC(=O)C[C@H](C)OP(=O)(CO[C@H](C)Cn1cnc2c(N)ncnc21)NC(C)(C)C(=O)OC(C)C` (single isomer, unassigned) [Example 10A], the IC50 amounted to 11.4 nM with HIV-1 (H9/IIIB strain) (setting [2]) and 71.7 nM with HIV-1 (H9/IIIB strain) (setting [3]). In addition, the “GI Tract stability” value in data set [1] (setting [4]) is 99.75%.
For `CCCOC(=O)C(C)(C)NP(=O)(CO[C@H](C)Cn1cnc2c(N)ncnc21)SCCC(=O)OC(C)C` (single isomer, unassigned) [Example 12A], the concentration for half-maximal inhibition (IC50) in the data set on HIV-1 (H9/IIIB strain) (setting [5]) was determined as 75.4 nM; in the data set with HIV-1 (H9/IIIB strain) (setting [6]) it was 322 nM. For the same compound, the “GI Tract stability” value in data set [1] (setting [4]) was 96.69%.
Regarding `CCOC(=O)C1(CCOP(=O)(CO[C@H](C)Cn2cnc3c(N)ncnc32)NC(C)(C)C(=O)OC(C)C)CC1` (single isomer, unassigned) [Example 4B], the figures for the half-maximal inhibitory concentration (IC50) in the data set with HIV-1 (H9/IIIB strain) (setting [2]) and in the data set with HIV-1 (H9/IIIB strain) (setting [3]) were 7.84 nM and 22.7 nM, respectively. Further, the “GI Tract stability” value in data set [1] (setting [4]) was 99.72%.
Regarding `CCCOC(=O)C(C)(C)NP(=O)(CO[C@H](C)Cn1cnc2c(N)ncnc21)SCCC(=O)OC(C)C` (single isomer, unassigned) [Example 12B], the IC50 in the data set with HIV-1 (H9/IIIB strain) (setting [5]) stood at 13 nM; with HIV-1 (H9/IIIB strain) (setting [6]), 38.6 nM. In data set [1] (setting [4]), the “GI Tract stability” value came out at 54.83%.
In the case of `CCCOC(=O)C(C)(C)NP(=O)(CO[C@H](C)Cn1cnc2c(N)ncnc21)OCCC(=O)OC(C)C` (single isomer, unassigned) [Example 1B], the 50% inhibitory concentration (IC50) in the data set on HIV-1 (H9/IIIB strain) (setting [2]) was 5.09 nM; with HIV-1 (H9/IIIB strain) (setting [3]), 13.8 nM. Also, in data set [1] (setting [4]), the “GI Tract stability” value amounted to 99.35%.
Regarding `CC(C)OC(=O)CCOP(=O)(CO[C@H](C)Cn1cnc2c(N)ncnc21)NC(C)(C)C(=O)OC(C)C` (single isomer, unassigned) [Example 2A], the IC50 was 22.4 nM in the data set with HIV-1 (H9/IIIB strain) (setting [2]) and 69.8 nM with HIV-1 (H9/IIIB strain) (setting [3]). Also, the “GI Tract stability” value in data set [1] (setting [4]) amounted to 100.30%.
